We go through two compounds from ChEMBL document CHEMBL1938277, “N-acylaminophenothiazines: neuroprotective agents displaying multifunctional activities for a potential treatment of Alzheimer's disease” (Eur J Med Chem, 2011).

A word on the IC50: it is the concentration at which inhibition is half-maximal. High values mean weaker potency in that assay, low ones greater potency in that assay. What is called Papp is a coefficient for how fast a substance crosses the barrier. A lower Papp goes with slow passage.

For series [1], the system named is SH-SY5Y. As to the kind of experiment: Neuroprotective activity against rotenone/oligomycin A-induced cell death in human SH-SY5Y cells assessed as LDH release at 0.3 uM after 24 hrs relative to control. The series is classed as functional. In general terms: LDH leaks from cells whose membrane has failed.
Series [2] has as its system SH-SY5Y. As to the kind of experiment: Neuroprotective activity against H2O2-induced cell death in human SH-SY5Y cells assessed as LDH release at 1 uM incubated for 24 hrs before H2O2 challenge measured after 24 hrs relative to control. Type of series: functional.
Series [3] relates to SH-SY5Y. In words: Neuroprotective activity against H2O2-induced cell death in human SH-SY5Y cells assessed as LDH release at 10 uM incubated for 24 hrs before H2O2 challenge measured after 24 hrs relative to control. Type of series: functional.
The test system of series [4] is SH-SY5Y. In words: Neuroprotective activity against rotenone/oligomycin A-induced cell death in human SH-SY5Y cells assessed as LDH release at 3 uM treated 24 hrs before rotenone/oligomycin A challenge measured after 24 hrs relative to control. Type of series: functional.
Series [5] concerns SH-SY5Y. In words: Neuroprotective activity against H2O2-induced cell death in human SH-SY5Y cells assessed as LDH release at 3 uM incubated for 24 hrs before H2O2 challenge measured after 24 hrs relative to control. Type of series: functional.
The subject of series [6] is SH-SY5Y. As to the kind of experiment: Neuroprotective activity against rotenone/oligomycin A-induced cell death in human SH-SY5Y cells assessed as LDH release at 1 uM treated 24 hrs before rotenone/oligomycin A challenge measured after 24 hrs relative to control. Type of series: functional.
In series [7] the test system is SH-SY5Y. As to the kind of experiment: Neuroprotective activity against H2O2-induced cell death in human SH-SY5Y cells assessed as LDH release at 30 uM incubated for 24 hrs before H2O2 challenge measured after 24 hrs relative to control. Type of series: functional.
Series [8] concerns SH-SY5Y. In words: Neuroprotective activity against okadaic acid-induced cell death in human SH-SY5Y cells assessed as LDH release at 3 uM treated 24 hrs before okadaic acid challenge measured after 24 hrs relative to control. Type of series: functional.
Series [9] relates to SH-SY5Y. In words: Neuroprotective activity against rotenone/oligomycin A-induced cell death in human SH-SY5Y cells assessed as LDH release at […] after 24 hrs relative to control. Type of series: functional.
The subject of series [10] is SH-SY5Y. As to the kind of experiment: Neuroprotective activity against okadaic acid-induced cell death in human SH-SY5Y cells assessed as LDH release at 0.3 uM treated 24 hrs before okadaic acid challenge measured after 24 hrs relative to control. Type of series: functional.
The target of another series is Cholinesterase (Equus caballus, UniProt P81908).
Sequence of Cholinesterase (P81908 whole entry): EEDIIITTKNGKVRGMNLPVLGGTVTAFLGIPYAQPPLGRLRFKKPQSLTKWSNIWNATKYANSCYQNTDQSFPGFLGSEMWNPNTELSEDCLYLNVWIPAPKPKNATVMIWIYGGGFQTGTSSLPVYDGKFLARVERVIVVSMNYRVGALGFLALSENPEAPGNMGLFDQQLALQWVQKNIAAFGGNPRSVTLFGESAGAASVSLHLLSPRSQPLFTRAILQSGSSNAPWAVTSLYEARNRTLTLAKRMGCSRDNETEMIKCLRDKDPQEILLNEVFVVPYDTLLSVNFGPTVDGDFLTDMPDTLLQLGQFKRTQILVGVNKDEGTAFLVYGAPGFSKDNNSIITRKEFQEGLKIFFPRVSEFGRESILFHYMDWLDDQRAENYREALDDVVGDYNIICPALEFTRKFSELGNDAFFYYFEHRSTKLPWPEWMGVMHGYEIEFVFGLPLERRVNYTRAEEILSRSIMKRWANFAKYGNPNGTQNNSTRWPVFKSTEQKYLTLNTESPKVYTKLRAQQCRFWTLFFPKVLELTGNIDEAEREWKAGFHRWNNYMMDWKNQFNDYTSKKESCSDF
The test system of series [11] is SH-SY5Y. In words: Neuroprotective activity against okadaic acid-induced cell death in human SH-SY5Y cells assessed as LDH release at 1 uM treated 24 hrs before okadaic acid challenge measured after 24 hrs relative to control. Type of series: functional.
Series [12] deals with SH-SY5Y. In words: Neuroprotective activity against amyloid beta 1 to 42-induced cell death in human SH-SY5Y cells assessed as increase in cell viability at 3 uM pre-incubated for 24 hrs before amyloid beta 1 to 42 challenge measured after 24 hrs by MTT assay relative to control. The series is classed as functional. (In general: Tetrazolium assays rely on reduction of a dye to a coloured formazan, in cell work by metabolically active cells.)

For series [13], the system named is SH-SY5Y. As to the kind of experiment: Antioxidant activity in human SH-SY5Y cells assessed as sequestering of rotenone/oligomycin A-induced mitochondrial free radicals at 0.3 uM after 120 mins by DCFH-DA assay. Type of series: functional.
The test system of series [14] is SH-SY5Y. In words: Neuroprotective activity against rotenone/oligomycin A-induced cell death in human SH-SY5Y cells assessed as LDH release at 1 uM after 24 hrs relative to control. Type of series: functional.
Another series addresses T1, Acetylcholinesterase (Bos taurus, UniProt P23795).
T1 sequence (P23795 whole entry): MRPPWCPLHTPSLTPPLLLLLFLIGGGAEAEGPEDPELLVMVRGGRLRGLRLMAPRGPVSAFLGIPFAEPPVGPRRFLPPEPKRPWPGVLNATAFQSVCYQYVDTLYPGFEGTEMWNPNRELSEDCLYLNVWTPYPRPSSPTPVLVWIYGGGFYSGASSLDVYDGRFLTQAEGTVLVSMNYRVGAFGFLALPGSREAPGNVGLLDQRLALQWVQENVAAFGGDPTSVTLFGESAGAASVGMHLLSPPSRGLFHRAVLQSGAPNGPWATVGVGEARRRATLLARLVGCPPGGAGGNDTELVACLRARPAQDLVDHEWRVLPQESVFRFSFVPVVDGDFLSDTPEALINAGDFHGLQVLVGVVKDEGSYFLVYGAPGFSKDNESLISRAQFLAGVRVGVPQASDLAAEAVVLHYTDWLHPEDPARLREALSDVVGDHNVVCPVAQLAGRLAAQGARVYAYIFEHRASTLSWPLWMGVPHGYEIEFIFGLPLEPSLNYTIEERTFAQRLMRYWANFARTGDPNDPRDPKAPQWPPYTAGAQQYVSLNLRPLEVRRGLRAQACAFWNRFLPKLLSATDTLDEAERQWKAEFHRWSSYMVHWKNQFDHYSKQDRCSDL
In words: biochemical.

A short description of the next series: in vitro. Particulars: PAMPA. For orientation: PAMPA measures passive passage across an artificial lipid membrane.
Series [15] deals with SH-SY5Y. As to the kind of experiment: Cytotoxicity against human SH-SY5Y cells. Type of series: cell-based.
Series [16] has as its system SH-SY5Y. In words: Neuroprotective activity against amyloid beta 1 to 42-induced cell death in human SH-SY5Y cells assessed as increase in cell viability at 1 uM pre-incubated for 24 hrs before amyloid beta 1 to 42 challenge measured after 24 hrs by MTT assay relative to control. The series is classed as functional.
Series [17] has as its system SH-SY5Y. In words: Neuroprotective activity against FPL64176-induced toxicity in human SH-SY5Y cells assessed as increase in cell viability at 0.3 uM treated 24 hrs before FPL64176 challenge measured after 24 hrs by MTT assay relative to control. Type of series: functional.
Series [18] concerns SH-SY5Y. In words: Neuroprotective activity against FPL64176-induced toxicity in human SH-SY5Y cells assessed as increase in cell viability at 1 uM treated 24 hrs before FPL64176 challenge measured after 24 hrs by MTT assay relative to control. The series is classed as functional.
The subject of series [19] is SH-SY5Y. In words: Neuroprotective activity against amyloid beta 1 to 42-induced cell death in human SH-SY5Y cells assessed as increase in cell viability at 0.3 uM pre-incubated for 24 hrs before amyloid beta 1 to 42 challenge measured after 24 hrs by MTT assay relative to control. The series is classed as functional.
Series [20] concerns SH-SY5Y. As to the kind of experiment: Neuroprotective activity against FPL64176-induced toxicity in human SH-SY5Y cells assessed as increase in cell viability at 10 uM treated 24 hrs before FPL64176 challenge measured after 24 hrs by MTT assay relative to control. The series is classed as functional.
For series [21], the system named is SH-SY5Y. In words: Neuroprotective activity against rotenone/oligomycin A-induced cell death in human SH-SY5Y cells assessed as LDH release at 0.3 uM treated 24 hrs before rotenone/oligomycin A challenge measured after 24 hrs relative to control. The series is classed as functional.
Series [22] relates to SH-SY5Y. As to the kind of experiment: Neuroprotective activity against amyloid beta 1 to 42-induced cell death in human SH-SY5Y cells assessed as increase in cell viability at 10 nM pre-incubated for 24 hrs before amyloid beta 1 to 42 challenge measured after 24 hrs by MTT assay relative to control. Type of series: functional.

Description for Acetylcholinesterase: Inhibition of AChE in bovine erythrocytes using acetylthiocholine as substrate by Ellman method
Description for in vitro: Permeability of the compound by PAMPA assay

With `O=C(CN1CCCC1)NN1c2ccccc2Sc2cc(Cl)ccc21`, the Activity was determined as 28.6% in the series on SH-SY5Y [1]; 54.6% in the series with SH-SY5Y [2]; 79.9% with SH-SY5Y [3]; 58.9% with SH-SY5Y [4]; 57.7% in the series on SH-SY5Y [5]; 51.8% in the series with SH-SY5Y [6]. For the same compound, the Activity is listed as 69.5% in the series with SH-SY5Y [7]; 29% in the series with SH-SY5Y [8]; 44.3% in the series with SH-SY5Y [9]; 28.3% in the series on SH-SY5Y [10]; 32% in the series on SH-SY5Y [11]; 13.6% with SH-SY5Y [12]. The Activity in the series with SH-SY5Y [13] was 14.7%; with SH-SY5Y [14], 44.1%; with SH-SY5Y [15], “Non-toxic”; with SH-SY5Y [16], 81.3%; in the series with SH-SY5Y [17] it was 39.8%; in the series on SH-SY5Y [18], 44.5%. Further, the figures for the Activity in the series on SH-SY5Y [19], in the series with SH-SY5Y [20] and in the series on SH-SY5Y [21] were 91.3%, 36.3% and 55%, respectively. Moreover, the IC50 against Cholinesterase is 1000 nM; on Acetylcholinesterase, above 100000 nM. The Papp in the series “in vitro” came to 14.9 ×10⁻⁶ cm/s.
With `COc1ccc2[nH]cc(CCNC(C)=O)c2c1` [MELATONIN], the Activity with SH-SY5Y [22] is listed as 72%.
